Results published in patent US20250075180A1, “METHOD FOR EXPANSION CULTURE OF GAMMA-DELTA T CELL” (IMMUNOMAX CO., LTD., priority 2022, published 2025).

What was measured:
γδ T cells [1] = assay: γδ T cell proliferation rate and viability in PBMC culture depending on finasteride concentration (Example 1); assay type: cell-based, human; conditions: for γδ T cell proliferation rate increase compared to control (IL-2 and ZA): PBMC from donor, 14-day culture; for proliferation rate of γδ T cells compared to control (in words): 14 days
Protocol: For 100 cc of blood from a healthy donor collected by a medical professional and placed in a heparin tube, 25 ml of 1×DPBS and 25 ml of the blood were placed in four 50 ml conical tubes. 15 ml of Lymphoprep (Axis Shield, UK) was vertically dispensed into a new 50 ml conical tube carefully to avoid contacting the wall as much as possible, and the diluted blood was slowly added to the top of the 50 ml conical tube containing the Lymphoprep solution along the wall. The conical tube was placed in a centrifuge and centrifuged at 800×g (1,890 rpm) for 20 minutes at room temperature. In the separated four blood layers, the white buffy coat layer between Lymphoprep and plasma layers was collected, transferred to new 50 ml conical tubes (three or four), and centrifuged at 1,500 rpm (500×g) for 10 minutes at room temperature. The cells divided into three or four 50 ml conical tubes were resuspended in 45 ml of 1×DPBS and then collected into one 50 ml conical tube. The cells collected in one tube were centrifuged a total of two times at 1,250 rpm (350×g) for 10 minutes at room temperature. A culture medium was added to a stock of 1.0×10^7 cells to a final volume of 10 ml so that the cell concentration was 1.0×10^6 cells/ml, followed by pipetting two or three times, after which 1.0 ml of the cells was dispensed as day 0 samples to proceed with culture, and the remaining cells were dispensed at 1.0×10^7 cells into frozen vials, stored frozen in a nitrogen tank (LN2 tank), and used by thawing as necessary. The peripheral blood mononuclear cells (PBMC) isolated in 1-1 were continuously treated with 3 μM zoledronic acid and 10^3 IU/ml IL-2 as basic culture components for γδ T cells and with 0.01 nM and 10 nM finasteride as an active ingredient, followed by culture for a total of 14 days, and the activation and proliferation rates of γδ T cells were compared. The frozen peripheral blood mononuclear cells were thawed in a constant temperature water bath at 37° C. and then suspended in 9 ml of OpTmizer medium (Thermo-Fisher Scientific, USA) containing 10% heat inactivated fetal bovine serum (FBS, Gibco, USA). The number of cells was measured, followed by centrifugation at 400×g and 25° C. for 4 minutes. The cell pellets obtained by centrifugation were suspended in 5 ml of complete OpTmizer medium (10% fetal bovine serum+OpTmizer medium, cOpTmizer) and the number of cells was measured, after which the cells were diluted with cOpTmizer medium to a concentration of 1.0×10^6 cells/ml. […] After 2 days of re-induction, the aggregated cells were resuspended using a 1000P micropipette and the number of cells was measured. […] 7 days after the start of culture, the aggregated cells were resuspended using a 1000P micropipette or a 10 ml serological pipette and the number of cells was measured. […]

γδ T cells [2] = assay: γδ T cell proliferation rate and viability in PBMC culture depending on finasteride treatment period (Example 4); assay type: cell-based, human
Protocol: Peripheral blood mononuclear cells (PBMC) were isolated from healthy donors and were cultured for a total of 14 days by continuous treatment with 10 nM finasteride as the active ingredient for each period until day 7, day 10, and day 14 from the start date of culture, in addition to the basic culture components for γδ T cells (3 μM zoledronic acid and 10^3 IU/ml IL-2), and the activation and proliferation rates of γδ T cells were compared. The frozen peripheral blood mononuclear cells were thawed in a constant temperature water bath at 37° C. and then suspended in 9 ml of OpTmizer medium (cOpTmizer, Thermo-Fisher Scientific, USA) containing 10% fetal bovine serum (FBS). The number of cells was measured, followed by centrifugation at 400×g and 25° C. for 4 minutes. The cell pellets obtained by centrifugation were suspended in 5 ml of cOpTmizer medium (Thermo-Fisher Scientific, USA) and the number of cells was measured, after which the cells were diluted with cOpTmizer medium to a concentration of 1.0×10^6 cells/ml. A total of 1.0×10^6 cells was dispensed at 1 ml per well in a 24-well plate. To stimulate and induce differentiation of γδ T cells, 10 nM finasteride, 3 μM zoledronic acid (ZA), and 100 μl of IL-2 (10^3 IU/ml) were added, followed by culture in a CO2 incubator at 37° C. for 4 days. 4 days after the start of culture, the aggregated cells were resuspended using a 1000P micropipette, and the same amount of cOpTmizer culture medium based on the cell culture fluid in culture and 10 nM finasteride and IL-2 (10^3 IU/ml) for re-induction were further added, followed by culture in a CO2 incubator at 37° C. 5 days after the start of culture, the aggregated cells were resuspended using a 1000P micropipette and the number of cells was measured. 10 nM finasteride and IL-2 (10^3 IU/ml) were further added to the same amount of cOpTmizer culture medium based on the cell culture fluid in culture, followed by culture in a CO2 incubator at 37° C. The next day, 10 nM finasteride and IL-2 (10^3 IU/ml) were further added to half of the cOpTmizer culture medium based on the cell culture fluid in culture, followed by culture in a CO2 incubator at 37° C. 7 days after the start of culture, the aggregated cells were resuspended using a 1000P micropipette or a 10 ml serological pipette and the number of cells was measured. The cells were diluted with cOpTmizer culture medium to a concentration of 0.4×10^6 cells/ml based on the cells in culture, after which 10 nM finasteride and IL-2 (10^3 IU/ml) were added to the additional cOpTmizer culture medium, followed by culture in a CO2 incubator at 37° C. for 3 days. 10 days after the start of culture, the aggregated cells were resuspended using a 1000P micropipette or a 10 ml serological pipette and the number of cells was measured. The cells were diluted with cOpTmizer culture medium to a concentration of 0.4×10^6 cells/ml based on the cells in culture, after which 10 nM finasteride and IL-2 (10^3 IU/ml) were added to the additional cOpTmizer culture medium, followed by culture in a CO2 incubator at 37° C. On day 12 after the start of the culture, the same amount of cOpTmizer culture medium based on the cell culture fluid in culture, 10 nM finasteride, and IL-2 (10^3 IU/ml) were added, followed by culture in a CO2 incubator at 37° C. 14 days after the start of culture, the aggregated cells were resuspended using a 1000P micropipette or a 10 ml serological pipette and the number of cells was measured. […]

[3] = 10 nM finasteride continuously until day 7, 14-day culture, FIG. 9

Compound: CC(C)(C)NC(=O)[C@H]1CC[C@H]2[C@@H]3CC[C@H]4NC(=O)C=C[C@]4(C)[C@H]3CC[C@]12C [Finasteride]
- γδ T cell proliferation rate increase compared to control (IL-2 and ZA) (γδ T cells [1]; 0.01 nM finasteride): 1.15 times increase
- γδ T cell proliferation rate increase compared to control (IL-2 and ZA) (γδ T cells [1]; 10 nM finasteride): 1.35 times increase
- proliferation rate of γδ T cells compared to control (in words) (γδ T cells [1]; female donors, low concentration of finasteride (0.01 nM), FIG. 2): increased
- proliferation rate of γδ T cells compared to control (in words) (γδ T cells [1]; male donors, high concentration of finasteride (10 nM), FIG. 1): increased
- γδ T cell proliferation rate increase compared to control group (γδ T cells [2]; [3]): about 1.5 times
- γδ T cell proliferation rate increase compared to group treated continuously until day 10 or 14 (γδ T cells [2]; [3]): at least 1.1 times
- cell viability compared to control group (γδ T cells [2]; continuous treatment with high concentration (10 nM) of finasteride): no significant difference
- proportion of γδ T cells (γδ T cells [2]; cultured for 7 days): about 70%
- proportion of γδ T cells (γδ T cells [2]; cultured for 10 days): ≥ 90%
